Measured values published in article PMC12687421, “Characterisation of an allosteric site in PLCγ enzymes and implications for development of their specific inhibitors” (Biochemical Journal, 2025).

Tests used:
[1] = test system: PLCγ1^D1165H; assay: PLC activity assay 1 (A1), PLCγ1 D1165H variant; type: biochemical, human
Method: (§1) The effect of nucleotide inhibition on PLC activity was measured using either a membrane-based assay with the fluorescent substrate (XY-69) incorporated into liposomes or using a small soluble substrate, Aldol 518 myo-inositol-1-phosphate (Aldol). Both methods utilised the same PLC assay buffer [20 mM Hepes-KOH, 70 mM KCl, 3 mM EGTA, 2.97 mM CaCl2, 2 mM TCEP and fatty acid-free bovine serum albumin (FAF-BSA; 50 μg/ml) (pH 7.5)]. Both assays were performed in low volume black 384-well plates (Greiner Bio-One), were composed of a final assay volume of 20 μl and were monitored in a Clariostar plate reader (BMG Labtech). […] The excitation and emission wavelengths were 588–15 and 642–20, respectively.
(§2) A CLARIOstar plate reader (BMG Labtech) was used to measure the production of the fluorescent product. The excitation and emission wavelengths were 485–15 and 520–20, respectively. Each experiment was performed in at least triplicate; in many cases, nine-fold replicates were generated. The enzyme progress curves were plotted for each concentration of nucleotide using Graphpad Prism software. The initial linear rate of product generation was calculated and converted to a % inhibition when compared with the rate of PLC activity in the absence of nucleotide. […]

[2] = test system: PLCγ1^S345F; assay: PLC activity assay 1 (A1), PLCγ1 S345F variant; type: biochemical, human
Method: as §1, §2

[3] = target: T1, PLCγ1^wt (Homo sapiens, UniProt P19174, I813T); assay: Assay 1 (A1) with 10% nickel lipids (His-tagged PLCγ1 immobilised on liposomes); type: biochemical; details: 10% Ni-lipids vs control
T1 construct: specific activities of PLCγ1^wt and PLCγ2^wt full-length proteins; made in house; host or cells: Escherichia coli T7 Express lysY/Iq
T1 sequence (P19174 1-1291 isoform P19174-2 I813T): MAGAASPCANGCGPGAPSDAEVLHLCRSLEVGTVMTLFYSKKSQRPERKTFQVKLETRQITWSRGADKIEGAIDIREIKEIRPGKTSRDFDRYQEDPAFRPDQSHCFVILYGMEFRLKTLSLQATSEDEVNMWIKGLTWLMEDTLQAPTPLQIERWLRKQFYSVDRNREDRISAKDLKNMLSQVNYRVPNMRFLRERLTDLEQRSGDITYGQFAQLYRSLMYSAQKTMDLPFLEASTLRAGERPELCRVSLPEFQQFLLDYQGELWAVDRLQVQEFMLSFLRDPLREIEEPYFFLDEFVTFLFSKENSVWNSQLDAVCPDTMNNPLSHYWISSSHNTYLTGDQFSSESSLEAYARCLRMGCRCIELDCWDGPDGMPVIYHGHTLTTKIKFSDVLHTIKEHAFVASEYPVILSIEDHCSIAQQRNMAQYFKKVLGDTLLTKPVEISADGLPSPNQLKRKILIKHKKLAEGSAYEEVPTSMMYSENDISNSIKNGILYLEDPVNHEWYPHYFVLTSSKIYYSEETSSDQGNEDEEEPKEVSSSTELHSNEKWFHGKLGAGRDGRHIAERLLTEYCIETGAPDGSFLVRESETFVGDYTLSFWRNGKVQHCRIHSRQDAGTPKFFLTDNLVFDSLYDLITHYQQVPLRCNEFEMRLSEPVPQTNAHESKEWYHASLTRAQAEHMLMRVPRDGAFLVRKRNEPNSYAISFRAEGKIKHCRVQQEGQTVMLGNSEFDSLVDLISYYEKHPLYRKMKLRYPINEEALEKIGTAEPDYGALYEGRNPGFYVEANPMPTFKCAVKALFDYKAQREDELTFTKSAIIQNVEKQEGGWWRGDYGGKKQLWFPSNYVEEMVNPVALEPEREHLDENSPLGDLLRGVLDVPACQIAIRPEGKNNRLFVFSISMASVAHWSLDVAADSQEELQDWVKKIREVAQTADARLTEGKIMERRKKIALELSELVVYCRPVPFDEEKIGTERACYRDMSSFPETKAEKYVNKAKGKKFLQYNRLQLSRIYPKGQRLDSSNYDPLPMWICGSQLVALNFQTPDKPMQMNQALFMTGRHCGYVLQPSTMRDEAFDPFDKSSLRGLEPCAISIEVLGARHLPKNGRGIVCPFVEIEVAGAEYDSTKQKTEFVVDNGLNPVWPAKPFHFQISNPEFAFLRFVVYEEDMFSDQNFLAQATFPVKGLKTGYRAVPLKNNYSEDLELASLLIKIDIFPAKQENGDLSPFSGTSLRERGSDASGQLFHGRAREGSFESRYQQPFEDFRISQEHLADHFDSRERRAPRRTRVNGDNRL
Text: The standard liposome components were designed to mimic a typical plasma membrane composition: 49% PE (brain or synthetic), 1% phosphatidylinositol 4,5-bisphosphate (PIP2), 20% brain phosphatidylserine (PS), 15% phosphatidylcholine (PC), 10% cholesterol and 5% sphingomyelin. The nickel liposome mix consisted of 39% PE (brain or synthetic), 1% PIP2, 20% brain PS, 15% PC, 10% cholesterol, 10% nickel lipid and 5% sphingomyelin.
(§3) A CLARIOstar plate reader (BMG Labtech) was used to measure the production of the fluorescent product. The excitation and emission wavelengths were 485–15 and 520–20, respectively. Each experiment was performed in at least triplicate; in many cases, nine-fold replicates were generated. The enzyme progress curves were plotted for each concentration of nucleotide using Graphpad Prism software. The initial linear rate of product generation was calculated and converted to a % inhibition when compared with the rate of PLC activity in the absence of nucleotide. These % inhibition values were plotted against the logarithm of the nucleotide concentration in Graphpad Prism and the data fitted with the function (Inhibitor) vs. response–variable slope (four parameters). The resultant fit yielded the IC50 values for the nucleotide inhibition.
The standard XY-69 assay format outlined above was repeated with the addition of 10% nickel lipids in the liposome mixture. […]

[4] = target: T1, PLCγ1^wt; assay: Assay 1 (A1) with FGFR1 kinase domain (phosphorylation), with or without nickel lipids; type: biochemical
Method: as §3
The standard XY-69 assay outlined above was followed with the following changes. The PLC activity buffer also contained 10 mM MgCl2. The final concentration of PLCγ1^WT in the assay was 12.5 nM and also contained a 10-fold excess of the FGFR1 kinase domain. The ATP dilution series was first added to the assay plate, followed by the enzyme mix. […] Subsequently, the standard XY-69 liposomes (with or without nickel lipids) were added, and the experiment monitored in the Clariostar as outlined above.

IC50 relative to PLCγ1^wt (fold higher) [1] | IC50 relative to PLCγ1^wt (fold higher) [2] | inhibition with membrane proximity and phospho-PLCγ1 combined ([4]; 10% Ni-lipids and FGFR1-KD, range of ATP concentrations including physiological levels) | Compound | effect of immobilisation to liposomes on inhibition of PLC activity [3] | PLC activity with increasing ATP in presence of FGFR1 kinase ([4]; FGFR1 kinase domain, no Ni-lipids)
5–7 fold | 5–7 fold |  | Nc1ncnc2c1ncn2[C@@H]1O[C@H](COP(=O)(O)OP(=O)(O)O)[C@@H](O)[C@H]1O [ADP] |  | 
 |  | clear reduction in nucleotide inhibition | Nc1ncnc2c1ncn2[C@@H]1O[C@H](COP(=O)(O)OP(=O)(O)OP(=O)(O)O)[C@@H](O)[C@H]1O [ATP] | prevented or, at higher concentrations, reduced inhibition | enhanced PLC activity compared with the control
